# Measurements reported in patent publication US20250177502A1, “THROMBIN AND FIBRINOGEN AS TARGETS FOR ATOPIC DERMATITIS DIAGNOSIS AND TREATMENT” (Children's Hospital Medical Center, priority 2022, published 2025).
# Assays:
# [1] = Bivalirudin solubility and precipitation in aqueous solutions; type: physicochemical
# Method: Direct thrombin inhibitor bivalirudin was formulated in a lyophilized formulation containing 50 mg/mL of bivalirudin, 25 mg/mL of mannitol, and NaOH for pH adjustment to 5-6. […] The lyophilized bivalirudin was reconstituted with 5 mL water to a concentration of 50 mg/mL.
# [2] = Absorption of topically applied bivalirudin: prothrombin time on homogenized ex vivo mouse skin samples; type: in vitro ADME; conditions: reconstituted bivalirudin 50 mg/mL applied to ex vivo mouse skin for 0, 5 or 15 minutes, then washed
# Method: Reconstituted bivalirudin was applied to ex vivo mouse skin samples for 0, 5, or 15 minutes then repeatedly washed, the samples were homogenized, and finally a prothrombin time was run on the homogenized skin samples. […] FIG. 10 illustrates absorption of topically applied bivalirudin by measuring prothrombin time.
smiles,measurement,setting,value
CC[C@H](C)[C@H](NC(=O)[C@H](CCC(=O)O)NC(=O)[C@H](CCC(=O)O)NC(=O)[C@H](Cc1ccccc1)NC(=O)[C@H](CC(=O)O)NC(=O)CNC(=O)[C@H](CC(N)=O)NC(=O)CNC(=O)CNC(=O)CNC(=O)CNC(=O)[C@@H]1CCCN1C(=O)[C@H](CCCNC(=N)N)NC(=O)[C@@H]1CCCN1C(=O)[C@H](N)Cc1ccccc1)C(=O)N1CCC[C@H]1C(=O)N[C@@H](CCC(=O)O)C(=O)N[C@@H](CCC(=O)O)C(=O)N[C@@H](Cc1ccc(O)cc1)C(=O)N[C@@H](CC(C)C)C(=O)O [bivalirudin],solubility: influence of pH,[1],influenced by pH
same,solubility: influence of temperature and addition of mannitol,[1],not affected
same,absorption by skin and retained function (prothrombin time of homogenized skin),[2],is absorbed and retains function
